Measurements: patent publication US12522576B2, “Polymorphs of D9-THC naphthoylester” (priority 2019, dated 2026)
≈ marks a conversion by molar mass, not a printed value.

Tests used:
[1] = Competitive ripening (relative thermodynamic stability of non-solvated forms); details: for Nature (thermodynamic stability of crystal form): Table 6 summary
[2] = D9 solubility in the liquors at isolation temperature; format: physicochemical; details: crystallisation liquors over suspended solid, organic solvent or mixture, thermodynamic from solid
Description: At the end of each experiment, suspensions were equilibrated at the isolation temperature (25 or 5° C.) for at least 18 hours and the solids and liquors separated by centrifugation at the isolation temperature. The Exo/D9/D8 ratio (Exo-D9-THC-naphthoylester impurity/D9-THC-naphthoylester/D8-THC-naphthoylester) was determined in both the isolated solids and the liquors, from which the % Exo-depletion in the isolated solids was calculated. Several solids were also isolated at elevated temperatures to assess the impact of the isolation temperature on Exo-impurity depletion.
In addition, the solubility of D9 in the liquors was determined in most of the explored solvents and used to estimate the yield.

[3] = Experiment No. 10, n-BuOH, 25 °C
[4] = Experiment No. 14, Toluene/EtOH (1:9), 5 °C
[5] = Experiment No. 16, n-BuOH, 5 °C

## CCCCCc1cc(OC(=O)c2ccc3ccccc3c2)c2c(c1)OC(C)(C)[C@@H]1CCC(C)=C[C@@H]21 [A, B, C, E, G]
[1]; Experiment No. 7, Acetone/MeOH (1:3), 25 °C
  Form Isolated 1-3 d: E/G
[1]; Experiment No. 8, Toluene/EtOH (1:9), 25 °C
  Form Isolated 1-3 d: G/E
[1]; [3]
  Form Isolated 1-3 d: B/G
  Form Isolated 4-9 d: B/G
[1]; [4]
  Form Isolated 4-9 d: B/G
  Form Isolated 26-29 d: G/B(tr)
[1]; [5]
  Form Isolated 4-9 d: B/G
  Form Isolated 26-29 d: B/G

## CCCCCc1cc(OC(=O)c2ccc3ccccc3c2)c2c(c1)OC(C)(C)[C@@H]1CCC(C)=C[C@@H]21 [B, G, H]
[1]; Experiment No. 17, Toluene/EtOH (1:9), 5 °C
  Form Isolated 12 d: G/H
[1]; Experiment No. 18, Heptane, 5 °C
  Form Isolated 12 d: H/B(tr)
[1]; Experiment No. 19, n-BuOH, 5 °C
  Form Isolated 12 d: B/H

## CCCCCc1cc(OC(=O)c2ccc3ccccc3c2)c2c(c1)OC(C)(C)[C@@H]1CCC(C)=C[C@@H]21 [E, G]
[1]; Experiment No. 15, Heptane, 5 °C
  Form Isolated 4-9 d: G/B

## CCCCCc1cc(OC(=O)c2ccc3ccccc3c2)c2c(c1)OC(C)(C)[C@@H]1CCC(C)=C[C@@H]21 [Form A, (6aR,10aR)-6a,7,8,10a-tetrahydro-6,6,9-trimethyl-3-pentyl-6H-dibenzo[b,d]pyran-1-yl ester]
[1]
  Nature (thermodynamic stability of crystal form): Metastable

## CCCCCc1cc(OC(=O)c2ccc3ccccc3c2)c2c(c1)OC(C)(C)[C@@H]1CCC(C)=C[C@@H]21 [Form C, (6aR,10aR)-6a,7,8,10a-tetrahydro-6,6,9-trimethyl-3-pentyl-6H-dibenzo[b,d]pyran-1-yl ester]
[2]; 5 °C, batch 5, MeCN/MIBK (8:2), seed D, heat T 50, isolation T 5, SP 6, 20.0 mL/g
  solubility: 21600 µg/mL (≈ 46.1 mM)
[2]; 5 °C, batch 5, MeCN/MeOH (9:1), seed D/G, heat T 50, isolation T 5, SP 6, 30.0 mL/g
  solubility: 8400 µg/mL (≈ 17.9 mM)
[2]; 25 °C, batch 5, MeCN, seed D, heat T 50, isolation T 25, SP 5, 30.0 mL/g
  solubility: 8600 µg/mL (≈ 18.4 mM)
[2]; 25 °C, batch 5, MeCN/MIBK (8:2), seed D, heat T 50, isolation T 25, SP 2, 3.2 mL/g
  solubility: 25500 µg/mL (≈ 54.4 mM)
[2]; 25 °C, batch 5, MeCN/MIBK (8:2), seed D, heat T 50, isolation T 25, SP 5, 20.0 mL/g
  solubility: 22300 µg/mL (≈ 47.6 mM)
[2]; 25 °C, batch 5, MeCN/MeOH (9:1), seed D/G, heat T 50, isolation T 25, SP 5, 30.0 mL/g
  solubility: 8700 µg/mL (≈ 18.6 mM)
[1]
  Nature (thermodynamic stability of crystal form): Metastable

## CCCCCc1cc(OC(=O)c2ccc3ccccc3c2)c2c(c1)OC(C)(C)[C@@H]1CCC(C)=C[C@@H]21 [Form E, (6aR,10aR)-6a,7,8,10a-tetrahydro-6,6,9-trimethyl-3-pentyl-6H-dibenzo[b,d]pyran-1-yl ester]
[2]; 25 °C, batch 5, Nitromethane, seed G, heat T 40, isolation T 25, 32.6 mL/g, SP 3
  solubility: 7000 µg/mL (≈ 14.9 mM)
[1]
  Nature (thermodynamic stability of crystal form): Metastable

## CCCCCc1cc(OC(=O)c2ccc3ccccc3c2)c2c(c1)OC(C)(C)[C@@H]1CCC(C)=C[C@@H]21 [G, H]
[1]; Experiment No. 5, Toluene/EtOH (1:9), 50 °C
  Form Isolated 1-3 d: H/G(tr)
[1]; Experiment No. 6, n-BuOH, 50 °C
  Form Isolated 1-3 d: H/G(tr)
[1]; Experiment No. 11, Toluene/EtOH (1:9), 25 °C
  Form Isolated 1-3 d: G/H
[1]; Experiment No. 12, Heptane, 25 °C
  Form Isolated 1-3 d: H/G
